Measurements reported in patent US20190202799A1, “IMIDAZOLE DERIVATIVES AND THEIR USE IN THE TREATMENT OF AUTOIMMUNE OR INFLAMMATORY DISEASES OR CANCERS” (GLAXOSMITHKLINE INTELLECTUAL PROPERTY (No.2) LIMITED, priority 2016, published 2019).

System: MCP-1 production
Test: LPS induced MCP-1 production from human whole blood
Format: cell-based
Conditions: LPS 200 ng/mL, 18-24 hours, read-out: mean pIC50, LPS induced MCP-1 production (converted)
Description: Activation of monocytic cells by agonists of toll-like receptors such as bacterial lipopolysaccharide (LPS) results in production of key inflammatory mediators including MCP-1. Such pathways are widely considered to be central to the pathophysiology of a range of auto-immune and inflammatory disorders.
Blood is collected in a tube containing Sodium heparin (Leo Pharmaceuticals) (10 units of heparin/mL of blood). 96-well compound plates containing 0.5 μL test sample (compound) in 100% DMSO were prepared (two replicates on account of donor variability). 130 μL of whole blood was dispensed into each well of the 96-well compound plates and incubated for 30 min at 37° C., 5% CO2. 10 μL of lipopolysaccharide (from Salmonella typhosa; L6386) made up in PBS (200 ng/mL final assay concentration) was added to each well of the compound plates. The plates were then placed in the humidified primary cell incubator for 18-24 hours at 37° C., 5% CO2. 140 μL of PBS was added to all wells of the compound plates containing blood. The plates were then sealed and centrifuged for 10 mins at 2500 rpm (r.t). […] 150 μL of 2×MSD Read Buffer T (stock 4×MSD Read Buffer T was diluted 50:50 with de-ionised water) was then added to each well and the plates read on the MSD Sector Imager 6000. Concentration response curves for each compound were generated from the data and an IC50 value was calculated.

An IC50 greater than 20 µM was found for Cc1cc(-c2nc(C(=O)O)cn2Cc2ccccc2)cn(C)c1=O [Example 34, 1-benzyl-2-(1,5-dimethyl-6-oxo-1,6-dihydropyridin-3-yl)-1H-imidazole-4-carboxylic acid] in this work.
